This passage reports IC50 results from PubChem BioAssay AID504313 (Emory University Molecular Libraries Screening Center, 2011).

The structures appear in SMILES notation. Activity calls are given as the source filed them. No rule for the calls is given here.

Usually IC50 stands for the concentration that inhibits the measured activity by half.

In the assay the target is X-box-binding protein 1 (Homo sapiens) (UniProt P17861). The assay can be described thus: inhibitors of XBP1 reporter signal, dose response, counter-screen, cell-based (AID 504313).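 Also: CHO cells carrying an XBP1 reporter stimulated with tunicamycin; potency is for inhibition of the tunicamycin-induced reporter signal.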 Conditions: XBP1 reporter cell assay, percent of control. A general note: A counterscreen serves to expose hits that act by an unwanted route or on another target.
Regarding `NC(=O)CC(NC(=O)Cc1cccc2ccccc12)c1ccc(NCc2ccc(F)cc2)c([N+](=O)[O-])c1` (stereo not given), the IC50 was > 10 µM (inactive). Next, `O=C1CC(c2ccccc2)CC(O)=C1C=Nc1cccc(Cl)c1` (stereo not given): > 10 µM (inactive); `Cc1nnc(NC(=O)c2sc3nc(-c4cccs4)cc(C(F)(F)F)c3c2N)s1`: “inactive”; `O=C(Nc1ccc(-c2nc3ccccc3o2)cc1)c1ccc(N2CCOCC2)c([N+](=O)[O-])c1`: > 10 µM (inactive). Consider `C=C1C(=O)O[C@@H]2C[C@@H](C)[C@@H]3C=CC(=O)[C@@]3(C)[C@@H](O)[C@H]12`, for which the IC50 is 2.43 µM. The same measure for `O=C(Nc1cccc(F)c1)N(Cc1ccc(Cl)cc1)CC(O)C(F)(F)F` (stereo not given): “inactive”; for `CCN1CCN(Cc2ccc(NC(=O)c3ccc(C)c(NC(=O)c4c[nH]c5cc(C(F)(F)F)ccc5c4=O)c3)cc2C(F)(F)F)CC1`: below 0.16 µM. `CCCCCCn1c(-c2ccco2)nc2oc3cc(OC)ccc3c(=O)c2c1=O`: the IC50 was > 10 µM (inactive). As to `CC(C)(C)c1ccc(CN2N=Nc3ccccc3S2(=O)=O)cc1`, the IC50 result was “inactive”.

As for `Cc1ccccc1CS(=O)(=O)c1nnc([C@H](CC(C)C)NC(=O)OC(C)(C)C)o1`, the IC50 entry was “inactive”.

In the case of `CN1CCc2c(sc(NC(=O)c3cc4cc([N+](=O)[O-])ccc4s3)c2C(N)=O)C1`, the IC50 was > 10 µM (inactive).

Turning to `COc1cccc(-c2nnc(NC(=O)c3ccc(S(=O)(=O)N(CC(C)C)CC(C)C)cc3)o2)c1`, the IC50 result is “inactive”. Next, `O=C1c2ccccc2-c2onc3ccc(Oc4ccccc4)c1c23`: “inactive”; `CCCCCCCC(=O)N/N=C/c1ccc(Br)cc1`: 4.47 µM.

Take `CCOc1cc(NC(=O)CCl)c(OCC)cc1NC(=O)CCl`: the IC50 was > 10 µM (inactive). Next, `O=S(=O)(NCC(Nc1ccc(Cl)cc1)c1ccccc1)c1ccc(Cl)cc1` (stereo not given): > 10 µM (inactive); `CC1CCC(C(C)C)C(OCC(O)CN2CCN(Cc3ccccc3)CC2)C1` (stereo not given): > 10 µM (inactive). The same measure for `CCc1ccc(OCC(=O)NC(NC(=S)Nc2ccc(C)cc2C)C(Cl)(Cl)Cl)cc1` (stereo not given): “inactive”; for `CCOc1cc(/C=N\NC(=O)Cc2ccccc2)ccc1OCC(=O)Nc1ccc(C)c(C)c1`: “inactive”; for `COc1ccc(OCc2cccc(C(=O)O)c2)cc1`: 0.4 µM. Next, `Clc1ccc2[nH]c(-c3ccccc3)cc2c1`: > 10 µM (inactive); `CCN1C/C(=C/c2ccc(OC)c(O)c2)C(=O)/C(=C/c2ccc(OC)c(O)c2)C1`: “inactive”. Consider `COc1ccc(-c2cnc(OC(C)(C)C)nc2OC(C)(C)C)cc1OC`, for which the IC50 entry is “inactive”. For `CCOC(=O)c1c2ccc(OCC(=O)N/N=C/c3ccc(C)cc3)cc2n2ccccc12`, the IC50 entry was “inactive”. The same measure for `CC(C)Cn1c(N)c(C(=O)COC(=O)C2CCCCC2)c(=O)n(C)c1=O`: > 10 µM (inactive); for `O=C(NC(c1ccccc1)c1c(O)ccc2ccccc12)c1ccccc1Cl` (stereo not given): “inactive”; for `CN(C)CCCn1c(SCC(=O)Nc2nc(-c3cccc(Br)c3)cs2)nc2ccccc2c1=O`: > 10 µM (inactive). Next, `COc1ccc(OCc2cccc(C(=O)Nn3cc([N+](=O)[O-])cn3)c2)cc1`: 0.33 µM; `CCCCCCCCCCCCCCCC[n+]1cccc(C(=O)N(CC)CC)c1`: “inactive”. Next, `O=C(N/N=C/c1cccc(F)c1)c1c(O)c2ccccc2[nH]c1=O`: “inactive”; `CCc1ccc(-c2nc(CN3CCC(C(=O)NCCN(CC)c4ccccc4)CC3)c(C)o2)cc1`: > 10 µM (inactive). On to `CCOc1ccc(/C=C/C2=Cc3c(sc(NC(=O)CSc4n[nH]c(N)n4)c3C#N)C(C)(C)C2)cc1`, for which the IC50 was > 10 µM (inactive). The same measure for `Cc1ccc(S(=O)(=O)CC#CCOC(=O)c2ccc([N+](=O)[O-])cc2)cc1`: “inactive”. The same measure for `CN1CCN(CC(=O)N2CCn3c4c(c5cc(C6CCCCC6)ccc53)CCCC42)CC1` (stereo not given): > 10 µM (inactive); for `S=C(NCCc1ccc(Cl)cc1)Nc1ccc(Cl)cc1Cl`: > 10 µM (inactive); for `O=C(CN1CCN(c2ncc(C(F)(F)F)cc2Cl)CC1)NCCNc1ncc(C(F)(F)F)cc1Cl`: “inactive”. As for `C/C(=N\NC(=O)c1nn(C)c(C)c1Br)c1ccc(NC(=O)c2ccoc2C)cc1`, the IC50 was > 10 µM (inactive). Next, `NC(=S)n1[nH]c(-c2ccc([N+](=O)[O-])cc2)c(N=Nc2ccc(Cl)cc2)c1=O`: “inactive”; `Cc1ccc(C2(c3ccc(C)cc3)CC2C(=O)Nc2ccc([N+](=O)[O-])cc2O)cc1` (stereo not given): “inactive”; `O=C(Nc1ccc(C(O)(C(F)(F)F)C(F)(F)F)cc1)c1ccc(Cl)c([N+](=O)[O-])c1`: “inactive”. Next, `CN1C(=O)/C(=C/c2cc(N=Nc3ccccc3)ccc2O)SC1=S`: “inactive”. The same measure for `CCc1ccc(OCC(=O)NC(NC(=S)Nc2ccccc2)C(Cl)(Cl)Cl)cc1` (stereo not given): > 10 µM (inactive). Take `CCCCCc1c(C)nc(NCc2ccccc2)[nH]c1=O`: the IC50 was > 10 µM (inactive). The same measure for `O=C(On1c(-c2ccccc2)nc2ccccc2c1=O)c1ccco1`: > 10 µM (inactive); for `CCCCCCn1c(N2CCC(C)CC2)nc2c1c(=O)[nH]c(=O)n2C`: > 10 µM (inactive). With `C/C(=C\c1ccco1)C1C(C#N)=C(N)Oc2n[nH]c(-c3ccc(C)cc3)c21` (stereo not given), the IC50 is > 10 µM (inactive). The same measure for `Fc1ccc(-n2nnnc2-c2cnc(-c3cccs3)nc2C(F)(F)F)cc1`: “inactive”. As to `Oc1ccc(Oc2ccc3c(C(F)(F)F)cc(C(F)(F)F)nc3n2)cc1`, the IC50 is > 10 µM (inactive).

On to `O=[N+]([O-])c1c(NCCCO)cc(Sc2ccc(Cl)cc2)c2nonc12`, for which the IC50 result was “inactive”. With `CC1(c2ccccc2)CC(C)(C)N2C(=O)C3(C(C#N)=C(N)Oc4cc(O)ccc43)c3cccc1c32` (stereo not given), the IC50 is > 10 µM (inactive). In the case of `CC1=NN(c2nc(-c3ccc(C)cc3)cs2)C(=O)C1N=Nc1ccccc1O` (stereo not given), the IC50 entry is “inactive”.

For `O=C(CCl)N(Cc1cccc([N+](=O)[O-])c1)c1cccc(Cl)c1`, the IC50 result is “inactive”. The same measure for `FC(F)(F)c1cccc(NC(=S)N2CCN(c3cccc(C(F)(F)F)c3)CC2)c1`: 4.52 µM; for `COc1cc(NC(=O)COc2ccccc2[N+](=O)[O-])ccc1NC(=O)c1cccs1`: > 10 µM (inactive). Consider `Cc1sc(NC(=O)c2cccc([N+](=O)[O-])c2)c(C(N)=O)c1-c1ccc(C(C)(C)C)cc1`, for which the IC50 was 4.11 µM. The same measure for `CN1/C(=C\C=C\C2=[N+](C)c3ccc4ccccc4c3C2(C)C)C(C)(C)c2ccccc21`: below 0.16 µM. The same measure for `O=C(COCC(=O)Nc1cccc(C(F)(F)F)c1)Nc1cccc(C(F)(F)F)c1`: “inactive”.

With `COc1ccc(Cn2c(C)c(C)c(C#N)c2NC(=O)Nc2ccc(Cl)cc2)cc1`, the IC50 was > 10 µM (inactive).

For the compound `O=C(Cc1ccccc1)NC(=S)Nc1cccc(C(F)(F)F)c1`, the IC50 entry was “inactive”. The same measure for `O=C(CCl)N(c1ccc(Cl)cc1)c1c[nH]c2ccccc12`: “inactive”.
